Measurements: US9409905B2, “Antibacterial compounds and methods for use” (PTC THERAPEUTICS, INC., priority 2011, dated 2016)
Converted amounts (≈) assume the structure as drawn.

Columns and labels:
E. coli LZ3111 = experiment: Antibacterial activity, MIC, quinolone resistant strain (Table 2); format: cell-based; settings: Escherichia coli, LZ3111, read-out: MIC LZ3111
Text: (§1) The antibacterial activity from a microbroth dilution method may be presented as the minimum inhibitory concentration (MIC in μg/mL). The MIC value is the lowest concentration of drug which prevents macroscopically visible growth under test conditions.
Mutations in these regions are known to confer a high level resistance to the quinolone class of antibiotics.

E. coli 25922 = experiment: Antibacterial activity, microbroth dilution MIC (Table 1); format: cell-based, Escherichia coli; settings: Escherichia coli; microbroth dilution; control Gram-negative E. coli 25922 strain; read-out: MIC, 25922
Text: as §1
(§2) Antibacterial activity of test compounds against the super sensitive Gram-negative Escherichia coli (E. coli) BAS849 bacterium, the control Gram-negative E. coli 25922 strain and the Gram-positive Staphylococcus aureus (S. aureus) 29213 bacterium are shown in Table 1.

[1] = system: Staphylococcus aureus (S. aureus) 29213; experiment: as above; format: cell-based; settings: microbroth dilution, Gram-positive S. aureus 29213, read-out: MIC, 29213
Text: as §1, §2

[2] = system: Escherichia coli (E. coli) BAS849; experiment: as above; format: cell-based; settings: microbroth dilution, super sensitive Gram-negative E. coli BAS849, read-out: MIC, BAS849
Text: as §1, §2

| SMILES | MIC (E. coli LZ3111) | MIC (E. coli 25922) | MIC [1] | MIC [2] |
| --- | --- | --- | --- | --- |
| CCc1cc(C(=O)O)c(=O)[nH]c1-c1ccc2c(c1)cc([C@H]1CCCN1)n2C.Cl [Cpd 67, (R)-5-ethyl-6-(1-methyl-2-(pyrrolidin-2-yl)-1H-indol-5-yl)-2-oxo-1,2-dihydropyridine-3-carboxylic acid hydrochloride] | 12.5 to 150 µg/mL | 1 to 3.5 µg/mL | 12.5 to 150 µg/mL | < 1 µg/mL |
| CCc1cc(C(=O)O)c(=O)[nH]c1-c1ccc2c(c1)cc([C@H]1CCCN1C)n2C [Cpd 68, (R)-5-ethyl-6-(1-methyl-2-(1-methylpyrrolidin-2-yl)-1H-indol-5-yl)-2-oxo-1,2-dihydropyridine-3-carboxylic acid] | 12.5 to 150 µg/mL (≈ 32.9 to 395 µM) | 1 to 3.5 µg/mL (≈ 2.64 to 9.22 µM) | 12.5 to 150 µg/mL (≈ 32.9 to 395 µM) | < 1 µg/mL |
| CCc1cc(C(=O)O)c(=O)[nH]c1-c1ccc2c(c1)cc([C@@H]1CCCN1)n2C.Cl [Cpd 69, (S)-5-ethyl-6-(1-methyl-2-(pyrrolidin-2-yl)-1H-indol-5-yl)-2-oxo-1,2-dihydropyridine-3-carboxylic acid hydrochloride] | 12.5 to 150 µg/mL | 1 to 3.5 µg/mL | 12.5 to 150 µg/mL | < 1 µg/mL |
| CCc1cc(C(=O)O)c(=O)[nH]c1-c1ccc2c(c1)cc(C1CNCCN1)n2C.Cl.Cl (stereo not shown) [Cpd 70, 5-ethyl-6-(1-methyl-2-(piperazin-2-yl)-1H-indol-5-yl)-2-oxo-1,2-dihydropyridine-3-carboxylic acid dihydrochloride] | 12.5 to 150 µg/mL | 12.5 to 150 µg/mL | 12.5 to 150 µg/mL | 3.5 to 12.5 µg/mL |
| CCc1cc(C(=O)O)c(=O)[nH]c1-c1ccc2c(c1)cc(C1CNCCN1C)n2C.Cl.Cl (stereo not shown) [Cpd 71, 5-ethyl-6-(1-methyl-2-(1-methylpiperazin-2-yl)-1H-indol-5-yl)-2-oxo-1,2-dihydropyridine-3-carboxylic acid dihydrochloride] | 12.5 to 150 µg/mL | 12.5 to 150 µg/mL | 12.5 to 150 µg/mL | 3.5 to 12.5 µg/mL |
| CCc1cc(C(=O)O)c(=O)[nH]c1-c1ccc2c(c1)c(C#N)cn2C [Cpd 72, 6-(3-cyano-1-methyl-1H-indol-5-yl)-5-ethyl-2-oxo-1,2-dihydropyridine-3-carboxylic acid] | 12.5 to 150 µg/mL (≈ 38.9 to 467 µM) | 12.5 to 150 µg/mL (≈ 38.9 to 467 µM) | 12.5 to 150 µg/mL (≈ 38.9 to 467 µM) | 3.5 to 12.5 µg/mL (≈ 10.9 to 38.9 µM) |
| CCc1cc(C(=O)O)c(=O)[nH]c1-c1ccc2c(c1)c(C(N)=O)cn2C [Cpd 73, 6-(3-carbamoyl-1-methyl-1H-indol-5-yl)-5-ethyl-2-oxo-1,2-dihydropyridine-3-carboxylic acid] | 12.5 to 150 µg/mL (≈ 36.8 to 442 µM) | 12.5 to 150 µg/mL (≈ 36.8 to 442 µM) | 12.5 to 150 µg/mL (≈ 36.8 to 442 µM) | 12.5 to 150 µg/mL (≈ 36.8 to 442 µM) |
| CCc1cc(C(=O)O)c(=O)[nH]c1-c1ccc2c(c1)c(CN)cn2C [Cpd 74, 6-(3-(aminomethyl)-1-methyl-1H-indol-5-yl)-5-ethyl-2-oxo-1,2-dihydropyridine-3-carboxylic acid] | 12.5 to 150 µg/mL (≈ 38.4 to 461 µM) | 12.5 to 150 µg/mL (≈ 38.4 to 461 µM) | 12.5 to 150 µg/mL (≈ 38.4 to 461 µM) | 12.5 to 150 µg/mL (≈ 38.4 to 461 µM) |
| CCc1cc(C(=O)O)c(=O)[nH]c1-c1ccc2c(c1)c(CN(C)C)cn2C [Cpd 75, 6-(3-((dimethylamino)methyl)-1-methyl-1H-indol-5-yl)-5-ethyl-2-oxo-1,2-dihydropyridine-3-carboxylic acid] | 12.5 to 150 µg/mL (≈ 35.4 to 424 µM) | 12.5 to 150 µg/mL (≈ 35.4 to 424 µM) | 12.5 to 150 µg/mL (≈ 35.4 to 424 µM) | 12.5 to 150 µg/mL (≈ 35.4 to 424 µM) |
| CCc1cc(C(=O)O)c(=O)[nH]c1-c1ccc2c(c1)c(CN(CC)CC)cn2C [Cpd 76, 6-(3-((diethylamino)methyl)-1-methyl-1H-indol-5-yl)-5-ethyl-2-oxo-1,2-dihydropyridine-3-carboxylic acid] | 12.5 to 150 µg/mL (≈ 32.8 to 393 µM) | 12.5 to 150 µg/mL (≈ 32.8 to 393 µM) | 12.5 to 150 µg/mL (≈ 32.8 to 393 µM) | 12.5 to 150 µg/mL (≈ 32.8 to 393 µM) |
| CCc1cc(C(=O)O)c(=O)[nH]c1-c1ccc2c(c1)c(CN(Cc1ccccc1)Cc1ccccc1)cn2C [Cpd 77, 6-(3-((dibenzylamino)methyl)-1-methyl-1H-indol-5-yl)-5-ethyl-2-oxo-1,2-dihydropyridine-3-carboxylic acid] | 12.5 to 150 µg/mL (≈ 24.7 to 297 µM) | 12.5 to 150 µg/mL (≈ 24.7 to 297 µM) | 3.5 to 12.5 µg/mL (≈ 6.92 to 24.7 µM) | 3.5 to 12.5 µg/mL (≈ 6.92 to 24.7 µM) |
| CCc1cc(C(=O)O)c(=O)[nH]c1-c1ccc2c(cc(CN3CCCC3)n2C)n1 [Cpd 84, 5-ethyl-6-(1-methyl-2-(pyrrolidin-1-ylmethyl)-1H-pyrrolo[3,2-b]pyridin-5-yl)-2-oxo-1,2-dihydropyridine-3-carboxylic acid] | 12.5 to 150 µg/mL (≈ 32.9 to 394 µM) | 3.5 to 12.5 µg/mL (≈ 9.2 to 32.9 µM) | 12.5 to 150 µg/mL (≈ 32.9 to 394 µM) | 1 to 3.5 µg/mL (≈ 2.63 to 9.2 µM) |
| CCc1cc(C(=O)O)c(=O)[nH]c1-c1ccc2c(c1)cc(C1=NCCN1)n2C [Cpd 85, 6-(2-(4,5-dihydro-1H-imidazol-2-yl)-1-methyl-1H-indol-5-yl)-5-ethyl-2-oxo-1,2-dihydropyridine-3-carboxylic acid] | 12.5 to 150 µg/mL (≈ 34.3 to 412 µM) | 12.5 to 150 µg/mL (≈ 34.3 to 412 µM) | 12.5 to 150 µg/mL (≈ 34.3 to 412 µM) | 1 to 3.5 µg/mL (≈ 2.74 to 9.6 µM) |
